Consider 10 compounds from ChEMBL document CHEMBL3132848, “Glycosidase inhibition by novel guanidinium and urea iminosugar derivatives” (Medchemcomm, 2013).

Usually pIC50 stands for the negative decadic logarithm of the IC50, by convention in mol/L. A higher pIC50 goes with a low IC50.

Assay [1] can be described thus: Inhibition of naringinase in Penicillium decumbens after 30 mins by spectrophotometric analysis.
Assay [2] can be described thus: Inhibition of alpha-mannosidase in jack bean after 30 mins by spectrophotometric analysis. Details: species or system Canavalia ensiformis.
Assay [3] in a line: Inhibition of beta-glucosidase in almond after 30 mins by spectrophotometric analysis. Also noted: species or system Prunus dulcis.
Assay [4] is described as follows: Inhibition of beta-mannosidase in Roman snail after 30 mins by spectrophotometric analysis. Details: species or system Helix pomatia.
In another assay the target is T1, Beta-galactosidase (Bos taurus, UniProt Q58D55).
T1 sequence (Q58D55 whole entry): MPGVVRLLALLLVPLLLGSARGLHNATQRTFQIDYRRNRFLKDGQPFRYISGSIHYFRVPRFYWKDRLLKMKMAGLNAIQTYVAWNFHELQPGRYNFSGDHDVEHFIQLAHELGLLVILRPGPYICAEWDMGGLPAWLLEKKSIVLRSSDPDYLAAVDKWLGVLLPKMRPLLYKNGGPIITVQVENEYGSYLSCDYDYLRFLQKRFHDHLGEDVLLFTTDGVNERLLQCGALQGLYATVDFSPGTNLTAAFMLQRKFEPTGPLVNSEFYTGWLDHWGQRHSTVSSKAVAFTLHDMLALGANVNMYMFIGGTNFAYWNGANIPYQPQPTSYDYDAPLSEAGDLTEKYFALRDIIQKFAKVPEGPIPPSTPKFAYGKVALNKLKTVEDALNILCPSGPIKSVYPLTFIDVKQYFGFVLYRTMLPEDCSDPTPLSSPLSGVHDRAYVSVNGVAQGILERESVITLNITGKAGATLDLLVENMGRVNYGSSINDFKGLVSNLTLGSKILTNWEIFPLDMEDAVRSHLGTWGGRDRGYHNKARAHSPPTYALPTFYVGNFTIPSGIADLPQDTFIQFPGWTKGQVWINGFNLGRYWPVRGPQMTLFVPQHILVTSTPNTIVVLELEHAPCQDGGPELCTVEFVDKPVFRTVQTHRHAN
As to the kind of experiment: Inhibition of beta-galactosidase in bovine liver after 30 mins by spectrophotometric analysis.

The next assay concerns the target Alpha-galactosidase (Coffea arabica, UniProt Q42656). As to the kind of experiment: Inhibition of alpha-galactosidase in green coffee bean after 30 mins by spectrophotometric analysis.
Assay [5] in a line: Inhibition of alpha-glucosidase in yeast after 30 mins by spectrophotometric analysis. Also noted: species or system Saccharomyces cerevisiae.

pIC50: −log10 of the molar value. Some results are limits rather than exact numbers.

Sequence of Alpha-galactosidase (Q42656 whole entry): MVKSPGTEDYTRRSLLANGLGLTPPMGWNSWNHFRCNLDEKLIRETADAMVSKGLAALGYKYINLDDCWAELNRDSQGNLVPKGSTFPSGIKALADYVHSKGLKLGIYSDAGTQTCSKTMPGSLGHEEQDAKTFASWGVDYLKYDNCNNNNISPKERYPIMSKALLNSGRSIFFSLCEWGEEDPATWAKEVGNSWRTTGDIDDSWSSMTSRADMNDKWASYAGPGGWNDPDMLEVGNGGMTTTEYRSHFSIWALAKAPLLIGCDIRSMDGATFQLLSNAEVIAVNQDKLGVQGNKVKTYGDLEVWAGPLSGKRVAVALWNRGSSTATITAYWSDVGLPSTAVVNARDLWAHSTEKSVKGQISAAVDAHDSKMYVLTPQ

As to `CCCCCCN1C[C@H](O)[C@@H](O)[C@H](O)[C@H]1CO`, the negative-log IC50 (pIC50) was 5.22 in assay [1]; less than 3.00 in assay [2]; 4.23 in assay [3]; less than 3.00 in assay [4]; less than 3.00 against Beta-galactosidase; 3.60 against Alpha-galactosidase. The compound also had a negative-log IC50 (pIC50) in assay [5] of 3.87.
In the case of `CCCCNC(=O)N1C[C@H](O)[C@@H](O)[C@H](O)[C@H]1CO`, the pIC50 is less than 3.00 in assay [1]; less than 3.00 in assay [2]; less than 3.00 in assay [3]; less than 3.00 in assay [4]; 4.57 on Beta-galactosidase; less than 3.00 at Alpha-galactosidase. The compound further gave a pIC50 in assay [5] of less than 3.00.
For the compound `CCCCNC(=N)N1C[C@H](O)[C@@H](O)[C@H](O)[C@H]1CO`, the negative logarithm of the IC50 (pIC50) in assay [1] is less than 3.00; in assay [2], 3.95; in assay [3], 4.39; in assay [4], 3.39; on Beta-galactosidase, 4.82; against Alpha-galactosidase it was 4.74. In addition, in assay [5], the negative logarithm of the IC50 (pIC50) was 4.70.
`CCCCCCCCNC(=N)N1C[C@H](O)[C@@H](O)[C@H](O)[C@H]1CO`: the negative-log IC50 (pIC50) in assay [1] was 4.17; in assay [2], 4.26; in assay [3], 4.60; against Beta-galactosidase it was 5.59; against Alpha-galactosidase it was 4.64; in assay [5], 4.51.
`N=C(NCCOCCO)N1C[C@H](O)[C@@H](O)[C@H](O)[C@H]1CO`: the pIC50 in assay [1] was 3.76; in assay [2] it was less than 3.00; in assay [3], less than 3.00; against Beta-galactosidase it was less than 3.00; on Alpha-galactosidase it was less than 3.00; in assay [5], 3.60.
As for `N=C(NCCO)N1C[C@H](O)[C@@H](O)[C@H](O)[C@H]1CO`, the negative-log IC50 (pIC50) in assay [1] was 3.19; in assay [2], less than 3.00; in assay [3] it was 3.34; against Beta-galactosidase, less than 3.00; against Alpha-galactosidase it was 3.27; in assay [5], 3.88.
In the case of `N=C(NCc1ccccc1)N1C[C@H](O)[C@@H](O)[C@H](O)[C@H]1CO`, the negative logarithm of the IC50 (pIC50) in assay [1] was 4.57; in assay [2] it was less than 3.00; in assay [3] it was 5.37; on Beta-galactosidase it was 5.29; against Alpha-galactosidase, less than 3.00; in assay [5], less than 3.00.
With `N=C(NCCCc1ccccc1)N1C[C@H](O)[C@@H](O)[C@H](O)[C@H]1CO`, the pIC50 in assay [1] was 4.48; in assay [2] it was less than 3.00; in assay [3], 4.17; at Beta-galactosidase it was 5.21; at Alpha-galactosidase it was less than 3.00; in assay [5], less than 3.00.
Turning to `N=C(NCCCOCC12CC3CC(CC(C3)C1)C2)N1C[C@H](O)[C@@H](O)[C@H](O)[C@H]1CO`, the negative-log IC50 (pIC50) in assay [1] is 4.66; in assay [2], less than 3.00; in assay [3] it was 3.31; on Beta-galactosidase it was 5.27; at Alpha-galactosidase it was less than 3.00; in assay [5], 3.88.
Turning to `OC[C@H]1NC[C@H](O)[C@@H](O)[C@@H]1O` [DUVOGLUSTAT], the negative logarithm of the IC50 (pIC50) is 4.48 in assay [1]; less than 3.00 in assay [2]; 3.51 in assay [3]; less than 3.00 in assay [4]; 3.78 in assay [5].
